Here are results for eleven molecules from US20260116921A1, “PEPTIDE INHIBITORS OF INTERLEUKIN-23 RECEPTOR AND THEIR USE TO TREAT INFLAMMATORY DISEASES” (priority 2018, published 2026).

Numbered stars: 1 amine (or outer) side, 2 acyl side, 3 side chain; on linkers, the order of the positions; unused ones are H or OH. Bridge positions count the residues as written; N and C are the ends. Square brackets hold non-standard residues; d marks the D form. Peptide text beside a SMILES is read from it. X1 = CCc1cccc2c(C[C@H](N[*:1])C(=O)[*:2])c[nH]c12; Trp(7-Me) = Cc1cccc2c(C[C@H](N)C(=O)O)c[nH]c12; 2Nal = N[C@@H](Cc1ccc2ccccc2c1)C(=O)O; AEF = NCCOc1ccc(C[C@H](N)C(=O)O)cc1; Cit = NC(=O)NCCC[C@H](N)C(=O)O; Pen = CC(C)(S)[C@H](N)C(=O)O; αMeK = C[C@](N)(CCCCN)C(=O)O Where only a bound is given, the exact number is not on record here.

The target of one data set is T1, IL-23R (Homo sapiens, UniProt Q5VWK5).
T1 sequence (Q5VWK5 24-629): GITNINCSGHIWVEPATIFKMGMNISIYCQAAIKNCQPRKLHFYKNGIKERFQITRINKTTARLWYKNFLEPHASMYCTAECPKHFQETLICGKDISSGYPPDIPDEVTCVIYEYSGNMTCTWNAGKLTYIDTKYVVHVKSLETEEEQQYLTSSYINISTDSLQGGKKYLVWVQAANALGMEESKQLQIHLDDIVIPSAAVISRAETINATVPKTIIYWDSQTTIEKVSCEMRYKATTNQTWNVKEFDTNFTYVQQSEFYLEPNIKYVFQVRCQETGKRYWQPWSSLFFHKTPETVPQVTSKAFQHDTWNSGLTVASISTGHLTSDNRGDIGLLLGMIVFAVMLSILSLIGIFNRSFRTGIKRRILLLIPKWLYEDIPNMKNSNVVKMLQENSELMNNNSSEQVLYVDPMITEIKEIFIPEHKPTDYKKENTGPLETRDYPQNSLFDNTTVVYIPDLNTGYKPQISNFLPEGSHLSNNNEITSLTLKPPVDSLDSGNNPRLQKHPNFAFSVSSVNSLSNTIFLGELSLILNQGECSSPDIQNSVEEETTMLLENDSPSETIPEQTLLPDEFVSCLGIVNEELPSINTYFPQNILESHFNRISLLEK
Description: DB cells IL23R pSTAT3 cell assay (pStat3 HTRF). It counts as cell-based. The conditions noted are these: Table E3; DB cells, IL-23 0.5 nM, 30 minutes at 37° C.; read-out: pStat3 HTRF (IC50). An outline of the steps:
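DB cells (5×10E5/well, RPMI-1640 + 10% FBS) stimulated with 0.5 nM final IL-23 plus serially diluted test peptides for 30 min at 37 °C, 5% CO2. Phospho-STAT3 (Tyr705) in lysates measured by HTRF using a two-plate protocol.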
A general note: TR-FRET usually uses a lanthanide donor and a delayed reading to cut background.

A short description of data set [1]: in vitro. It counts as in vitro ADME. Set-up: half-life: dose or concentration left out as unconfirmed. The conditions noted are these: simulated intestinal fluid (SIF) with pancreatin, pH 6.8, 37° C., § matrix is 100 fold dilution of standard SIF concentration, read-out: SIF t½ (converted).
The nature of data set [2]: in vitro. As to conditions: both, SD, rat, plasma (EDTA).
Data set [3] in a line: in vitro. As to conditions: human, 20% fecal homogenate (supernatant), anaerobic, pH 6.8.
Data set [4] is described as follows: in vitro. As to conditions: cynomolgus monkey, 20% fecal homogenate (supernatant), anaerobic, pH 6.8.

Take `CC(=O)NCCCC[C@H](NC(=O)[C@](C)(CCCCN)NC(=O)[C@H](Cc1ccc2ccccc2c1)NC(=O)[C@H](Cc1ccc(OCCN)cc1)NC(=O)[C@H]1NC(=O)[C@H](CCCNC(N)=O)NC(=O)[C@H](Cc2c[nH]c3c(C)cccc23)NC(=O)[C@H]([C@@H](C)O)NC(=O)[C@H](CC(N)=O)NC(=O)[C@@H](NC(C)=O)C(C)(C)SSC1(C)C)C(=O)N[C@@H](CC(N)=O)C(=O)N[C@H](Cc1ccc(O)cc1)C(N)=O` [compound 259] (Ac-[Pen]NT[Trp(7-Me)][Cit][Pen][AEF][2Nal][αMeK]K(Ac)N[dY]-NH2; disulfide 1-6): on IL-23R, the 50% inhibitory concentration (IC50) – broadly, the midpoint of a concentration-inhibition curve – was below 1 nM. Moreover, in the data set “in vitro [1]”, the half-life was 12 h. The half-life at 20 μM in “in vitro [2]” was above 24 h; in “in vitro [3]” it was above 24 h; in the data set “in vitro [4]”, 16 h.
For the molecule `CC(=O)NCCCC[C@@H]1NC(=O)[C@H](Cc2c[nH]c3c(C)cccc23)NC(=O)[C@H]([C@@H](C)O)NC(=O)[C@H](CC(N)=O)NC(=O)[C@@H](NC(C)=O)C(C)(C)SSC(C)(C)[C@@H](C(=O)N[C@@H](Cc2ccc3ccccc3c2)C(=O)N[C@@H](Cc2ccc3ccccc3c2)C(=O)N[C@@](C)(CCCCN)C(=O)N[C@@H](CCCCNC(C)=O)C(=O)N[C@@H](CC(N)=O)C(=O)N[C@H](CC(C)C)C(N)=O)NC1=O` [compound 289] (Ac-[Pen]NT[Trp(7-Me)]K(Ac)[Pen][2Nal][2Nal][αMeK]K(Ac)N[dL]-NH2; disulfide 1-6), the IC50 on IL-23R lay within 1 to 10 nM. Besides, the half-life in “in vitro [1]” was 12 h. Further, the half-life at 20 μM in the data set “in vitro [2]”, in the data set “in vitro [3]” and in “in vitro [4]” was above 24 h each time.
With `COc1cccc2c(C[C@@H]3NC(=O)[C@H]([C@@H](C)O)NC(=O)[C@H](CC(N)=O)NC(=O)[C@@H](NC(C)=O)C(C)(C)SSC(C)(C)[C@@H](C(=O)N[C@@H](Cc4ccc(OCCN)cc4)C(=O)N[C@@H](Cc4ccc5ccccc5c4)C(=O)N[C@@](C)(CCCCN)C(=O)N[C@@H](CCCCNC(C)=O)C(=O)N[C@@H](CC(N)=O)C(=O)N[C@H](CC(C)C)C(N)=O)NC(=O)[C@H](CCCCNC(C)=O)NC3=O)c[nH]c12` [compound 288], the 50% inhibitory concentration (IC50) on IL-23R fell in the range of 1 to 10 nM. The half-life in the data set “in vitro [1]” was 12 h. The half-life at 20 μM in the data set “in vitro [2]”, in “in vitro [3]” and in the data set “in vitro [4]” was above 24 h in each case.
As for `CC(=O)NCCCC[C@@H]1NC(=O)[C@H](Cc2c[nH]c3c(C)cccc23)NC(=O)[C@H]([C@@H](C)O)NC(=O)[C@H](CC(N)=O)NC(=O)[C@@H](NC(C)=O)C(C)(C)SSC(C)(C)[C@@H](C(=O)N[C@@H](Cc2ccc(OCCN)cc2)C(=O)N[C@@H](Cc2ccc3ccccc3c2)C(=O)N[C@@](C)(CCCCN)C(=O)N[C@@H](CCCCNC(C)=O)C(=O)N[C@@H](CC(N)=O)C(=O)N2CCC[C@@H]2C(N)=O)NC1=O` [compound 254], at IL-23R, the IC50 was 1 to 10 nM. Besides, in the data set “in vitro [1]”, the half-life is 16 h. The half-life at 20 μM is 12 h in the data set “in vitro [2]”, above 24 h in “in vitro [3]” and above 24 h in the data set “in vitro [4]”.
Consider `CC(=O)NCCCC[C@H](NC(=O)C1(NC(=O)[C@H](Cc2ccc3ccccc3c2)NC(=O)[C@H](Cc2ccc(OCCN)cc2)NC(=O)[C@H]2NC(=O)[C@H](CCC(N)=O)NC(=O)[C@H](Cc3c[nH]c4c(C)cccc34)NC(=O)[C@H]([C@@H](C)O)NC(=O)[C@H](CC(N)=O)NC(=O)[C@@H](NC(C)=O)C(C)(C)SSC2(C)C)CCCCC1)C(=O)N[C@@H](CC(N)=O)C(=O)NCCC(N)=O` [compound 274], for which the 50% inhibitory concentration (IC50) at IL-23R is below 1 nM. The half-life in the data set “in vitro [1]” is 5 h. In addition, the half-life at 20 μM was 5 h in “in vitro [2]”, above 24 h in “in vitro [3]” and 4 h in “in vitro [4]”.
Consider `CC(=O)NCCCC[C@@H]1NC(=O)[C@H](Cc2c[nH]c3c(C)cccc23)NC(=O)[C@H]([C@@H](C)O)NC(=O)[C@H](CC(N)=O)NC(=O)[C@@H](NC(C)=O)C(C)(C)SSC(C)(C)[C@@H](C(=O)N[C@@H](Cc2ccc(OCCN)cc2)C(=O)N[C@@H](Cc2ccc3ccccc3c2)C(=O)N[C@@](C)(CCCCN)C(=O)N[C@@H](CCCCNC(C)=O)C(=O)N[C@@H](CC(N)=O)C(=O)N[C@@H](CCCNC(N)=O)C(N)=O)NC1=O` [compound 249], for which the IC50 on IL-23R is below 1 nM. In the data set “in vitro [1]”, the half-life is 7 h. The half-life at 20 μM was above 24 h in “in vitro [2]”, above 24 h in “in vitro [3]” and 5 h in “in vitro [4]”.
On to `CC(=O)NCCCC[C@@H]1NC(=O)[C@H](Cc2c[nH]c3c(C)cccc23)NC(=O)[C@H]([C@@H](C)O)NC(=O)[C@H](CC(N)=O)NC(=O)[C@@H](NC(C)=O)C(C)(C)SSC(C)(C)[C@@H](C(=O)N[C@@H](Cc2c[nH]cn2)C(=O)N[C@@H](Cc2ccc3ccccc3c2)C(=O)N[C@@](C)(CCCCN)C(=O)N[C@@H](CCCCNC(C)=O)C(=O)N[C@@H](CC(N)=O)C(=O)N[C@H](CC(C)C)C(N)=O)NC1=O` [compound 290] (Ac-[Pen]NT[Trp(7-Me)]K(Ac)[Pen]H[2Nal][αMeK]K(Ac)N[dL]-NH2; disulfide 1-6), for which, at IL-23R, the IC50 was 1 to 10 nM. Also, the half-life in “in vitro [1]” was 16 h. For the same molecule, the half-life at 20 μM in the data set “in vitro [2]”, in the data set “in vitro [3]” and in “in vitro [4]” was above 24 h throughout.
`CCc1cccc2c(C[C@@H]3NC(=O)[C@H]([C@@H](C)O)NC(=O)[C@H](CC(N)=O)NC(=O)[C@@H](NC(C)=O)C(C)(C)SSC(C)(C)[C@@H](C(=O)N[C@@H](Cc4ccc(OCCN)cc4)C(=O)N[C@@H](Cc4ccc5ccccc5c4)C(=O)N[C@@](C)(CCCCN)C(=O)N[C@@H](CCCCNC(C)=O)C(=O)N[C@@H](CC(N)=O)C(=O)N[C@H](CC(C)C)C(N)=O)NC(=O)[C@H](CCCCNC(C)=O)NC3=O)c[nH]c12` [compound 284] (Ac-[Pen]NT[X1]K(Ac)[Pen][AEF][2Nal][αMeK]K(Ac)N[dL]-NH2; disulfide 1-6): the IC50 at IL-23R is below 1 nM. For the same molecule, the half-life in the data set “in vitro [1]” was 2 h. The half-life at 20 μM in the data set “in vitro [2]”, in “in vitro [3]” and in “in vitro [4]” was above 24 h in each case.
With `CCC(CC)(NC(=O)[C@H](Cc1ccc2ccccc2c1)NC(=O)[C@H](Cc1ccc(OCCN)cc1)NC(=O)[C@H]1NC(=O)[C@H](CCC(N)=O)NC(=O)[C@H](Cc2c[nH]c3c(C)cccc23)NC(=O)[C@H]([C@@H](C)O)NC(=O)[C@H](CC(N)=O)NC(=O)[C@@H](NC(C)=O)C(C)(C)SSC1(C)C)C(=O)N[C@@H](CCCCNC(C)=O)C(=O)N[C@@H](CC(N)=O)C(=O)NCCC(N)=O` [compound 276], at IL-23R, the concentration for half-maximal inhibition (IC50) is below 1 nM. The half-life in the data set “in vitro [1]” is 13 h. Further, the half-life at 20 μM in “in vitro [2]” is 5 h; in “in vitro [3]”, above 24 h; in “in vitro [4]” it was 13 h.
Consider `CC(=O)NCCCC[C@H](NC(=O)[C@](C)(CCCCN)NC(=O)[C@H](Cc1ccc2ccccc2c1)NC(=O)[C@H](Cc1ccc(OCCN)cc1)NC(=O)[C@H]1NC(=O)[C@H](CCCNC(N)=O)NC(=O)[C@H](Cc2c[nH]c3c(C)cccc23)NC(=O)[C@H]([C@@H](C)O)NC(=O)[C@H](CC(N)=O)NC(=O)[C@@H](NC(C)=O)C(C)(C)SSC1(C)C)C(=O)N[C@@H](CC(N)=O)C(=O)N[C@H](Cc1ccccc1)C(N)=O` [compound 257] (Ac-[Pen]NT[Trp(7-Me)][Cit][Pen][AEF][2Nal][αMeK]K(Ac)N[dF]-NH2; disulfide 1-6), for which the IC50 at IL-23R lay in the range of 1 to 10 nM. Besides, in the data set “in vitro [1]”, the half-life was 5 h. For the same molecule, the half-life at 20 μM is above 24 h in the data set “in vitro [2]”, above 24 h in the data set “in vitro [3]” and 23 h in the data set “in vitro [4]”.
`CC(=O)NCCCC[C@@H]1NC(=O)[C@H](Cc2c[nH]c3c(C)cccc23)NC(=O)[C@H]([C@@H](C)O)NC(=O)[C@H](CC(N)=O)NC(=O)[C@@H](NC(C)=O)C(C)(C)SSC(C)(C)[C@@H](C(=O)N[C@@H](Cc2ccc(OCCN)cc2)C(=O)N[C@@H](Cc2ccc3ccccc3c2)C(=O)N[C@@](C)(CCCCN)C(=O)N[C@@H](CCCCNC(C)=O)C(=O)N[C@@H](CC(N)=O)C(=O)N[C@H](C(N)=O)C(C)C)NC1=O` [compound 250]: the IC50 at IL-23R was 1 to 10 nM. Moreover, in “in vitro [1]”, the half-life is 17 h. The half-life at 20 μM in “in vitro [2]” was above 24 h; in the data set “in vitro [3]”, above 24 h; in the data set “in vitro [4]” it was 12 h.
